According to PMC9386018, “A lymphatic-absorbed multi-targeted kinase inhibitor for myelofibrosis therapy” (Nature Communications, 2022):
Values joined by “and” are separate entries in the source; they are usually repeats but may differ in a detail not shown here. Identical values can stand only once.

Experiment: Rat mesenteric lymph duct cannulation model: lymphatic fluid and blood
Type: in vivo
Conditions: anesthetized rats; for Lymphatic fluid Concentration (ng/mL or ng/g): individual animals
Procedure: A rat mesenteric lymph duct cannulation model was used to collect and quantify LP-182 in lymphatic fluid, blood, and lymphatic proteo-lipid sub-fractions similar to previously described methods[37],[40]. Male Sprague-Dawley rats (n = 7) were anesthetized by isoflurane (Piramel, PA) and placed on a heated pad maintained at 37 °C using a Kent Scientific (Torrington, CT) low flow vaporizer and SomnoSuite for pulse oximetry and thermal regulation, respectively. The carotid artery, mesenteric lymph duct and duodenum were cannulated, and normal saline was continuously infused into the duodenum at 1.7 mL h^−1 using a constant rate infusion pump. After approx. 0.5 h, 50 mg kg^−1 of LP-182 solubilized in ~1.7 mL of either Maisine CC or a mixture of 93% Maisine CC and 7% Labrasol (Gattefossé; Saint-Priest, France) was infused over 1 h into the duodenum, followed by normal saline (as above) for the duration of the experiment. Hourly fractions of lymphatic fluid were collected continually (rate of ~0.5–1.2 mL h^−1) for approx. 6 h, while arterial blood samples (10–20 µL) were collected once per hour and stored at −20 °C for future analysis. Lymphatic fluid time course samples were either frozen or pooled for subsequent fractionation by ultracentrifugation to isolate proteo-lipid sub-fractions similar to previously described methods. Separation of chylomicrons was achieved by layering lymphatic fluid under PBS (Gibco; ThermoFisher Scientific) in a polyallomer ultracentrifuge tube (Beckman, CA), and centrifugation in a L8-70M ultracentrifuge (Beckman, CA) at 202,048 x g using a SW40Ti rotor (Beckman, CA) for 95 min at 15 °C. Following centrifugation, the semi-solid chylomicron layer at the top of the centrifuge tube was recovered and stored at −20 °C for future analysis. After replacing the void volume with PBS, the bottom layer underwent further ultracentrifugation for an additional 16 h as above, at which time a viscous dispersion of VLDL was collected from the top of the tube, and an aqueous fraction containing LDL/HDL from the bottom, which were stored at −20 °C for future analysis. All lymphatic fluid, blood, and fractionated chylomicron, VLDL, and LDL/HDL samples were analyzed by mass spectrometry for quantitation of LP-182 as outlined below. Relative LP-182 in lymphatic fluid proteo-lipid sub-fractions was calculated as the amount of compound in a specified fraction as a percentage of the cumulative amount of compound measured in all fractions. […] Relative LP-182 in blood was calculated as the amount of compound measured in a specified temporal fraction of blood as a percentage of the amount of compound measured in an equal volume of the same temporal fraction of lymphatic fluid, with the average calculated from all fractions. Data was generated from n = 2 individual animals sampled per time point per study condition due to limitations in blood volume collection.
Standards and compound extraction from biological fluids or tissues was performed using similar protocols, all resulting in recoveries ≥90%. Briefly, acetonitrile was added to a final concentration of 60–80% to bone marrow, whole blood, plasma, lymphatic fluid, lymphatic proteo-lipid sub-fractions, or mesenteric lymph node samples for compound extraction. Extraction was performed by shaking and/or bead rupture using a Precellys Evolution tissue homogenizer (Bertin Technologies SAS). […] Optimization of MS and MS/MS parameters for MRM quantitation and maximum sensitivity of individual compounds was performed using SCIEX Analyst software (AB Sciex). […] All LC-MS/MS acquisitions were performed with an independent standard curve for each group of analytes and for each individual run. All solvents utilized were of Optima LC-MS Grade (Fisher Scientific). Data was generated from n ≥ 2 individual animals per compound per study condition or dose.

[1] = 1 h intra-duodenal infusion 50 mg kg^−1, 6 h

Compound: O=C(NOCCOCCOCCOCCC(=O)N1CCN(c2cnc3ccc(-c4cnc(Cl)c(NS(=O)(=O)c5ccc(F)cc5)c4)cc3n2)CC1)c1ccc(F)c(F)c1Nc1ccc(I)cc1F [LP-182, N-(2-(2-(2-(3-(4-(7-(6-chloro-5-((4-fluorophenyl)sulfonamido)pyridin-3-yl)quinoxalin-2-yl)piperazin-1-yl)-3-oxopropoxy)ethoxy)ethoxy)ethoxy)-3,4-difluoro-2-((2-fluoro-4-iodophenyl)amino)benzamide]
- Lymphatic fluid Concentration (ng/mL or ng/g) (1 h intra-duodenal infusion 50 mg kg^−1, 0 h): 0 ng/mL or ng/g
- Lymphatic fluid Concentration (ng/mL or ng/g) (1 h intra-duodenal infusion 50 mg kg^−1, 1 h): 1075.78 ng/mL or ng/g and 810.78 ng/mL or ng/g and 1128.99 ng/mL or ng/g and 810.9 ng/mL or ng/g and 526.14 ng/mL or ng/g and 195.59 ng/mL or ng/g and 1185.4 ng/mL or ng/g
- Lymphatic fluid Concentration (ng/mL or ng/g) (1 h intra-duodenal infusion 50 mg kg^−1, 2 h): 15938.1 ng/mL or ng/g and 4987.49 ng/mL or ng/g and 11915.5 ng/mL or ng/g and 8277.36 ng/mL or ng/g and 1691.13 ng/mL or ng/g and 3232.84 ng/mL or ng/g and 9168 ng/mL or ng/g
- Lymphatic fluid Concentration (ng/mL or ng/g) (1 h intra-duodenal infusion 50 mg kg^−1, 3 h): 11950.5 ng/mL or ng/g and 2555.63 ng/mL or ng/g and 6787.62 ng/mL or ng/g and 11961.6 ng/mL or ng/g and 3014.24 ng/mL or ng/g and 1175.13 ng/mL or ng/g and 13326 ng/mL or ng/g
- Lymphatic fluid Concentration (ng/mL or ng/g) (1 h intra-duodenal infusion 50 mg kg^−1, 4 h): 4407.66 ng/mL or ng/g and 5844.35 ng/mL or ng/g and 3822.74 ng/mL or ng/g and 8176.6 ng/mL or ng/g and 1916.83 ng/mL or ng/g and 592.35 ng/mL or ng/g and 6976.86 ng/mL or ng/g
- Lymphatic fluid Concentration (ng/mL or ng/g) (1 h intra-duodenal infusion 50 mg kg^−1, 5 h): 4529.02 ng/mL or ng/g and 3482.33 ng/mL or ng/g and 3674.05 ng/mL or ng/g and 7088.41 ng/mL or ng/g and 2106.37 ng/mL or ng/g and 169.31 ng/mL or ng/g and 7019.83 ng/mL or ng/g
- level in blood as % of total compound measured among each set of temporal fractions [1]: 1.7%
- Lymphatic fluid Concentration (ng/mL or ng/g) [1]: 2432.36 ng/mL or ng/g and 2631.07 ng/mL or ng/g and 1756.69 ng/mL or ng/g and 8133.27 ng/mL or ng/g and 2059.99 ng/mL or ng/g and 330.98 ng/mL or ng/g and 2839 ng/mL or ng/g
